Read-outs that look alike come from different tables or passages of the source.
What was measured:
[1] = system: rice plants comprising the TaQ8GTC0 gene introduced therein; assay: Herbicide resistance test of rice plants comprising the TaQ8GTC0 gene, gellan gum medium, plant height; format: in vivo; conditions: for IC50: Oryza sativa, read-out: I50
Procedure: Hoagland's mix and 3 g of gellan gum were suspended in 1 liter of distilled water and thoroughly dissolved therein by heating in a microwave. A fraction of the resultant (15 ml) was injected into a tubular bottle before it was cooled (30 ml was injected into the plate). The herbicide was simultaneously added at the time of injection of the gellan gum medium into the tubular bottle or plate, followed by thorough mixing. Rice hulls were soaked in a 50-fold diluted sodium hypochlorite solution (antiformin) (Wako) for approximately 20 minutes and then thoroughly washed with water. Sterilized seeds were soaked in distilled water and allowed to stand at 27° C. for germination (for approximately 2 days). Germinating seeds were softly planted in the gellan gum medium (plate) containing 0.25 μM BS. These samples, together with a beaker filled with distilled water, were placed in a transparent case, which was then covered with a clear plastic wrap. These samples were grown at 27° C. under fluorescent light illumination (14 hours of a light period and 10 hours of a dark period) for 2 days. Thereafter, rice seeds that were determined to have BS resistance with the use of root elongation as the indicator were transferred to gellan gum media containing pyroxasulfone (tubal bottles) at the final concentrations of 10^−8, 10^−7, 10^−6, and 10^−5M, respectively. Subsequently, these samples, together with a beaker filled with distilled water, were placed in a transparent case, which was then covered with a clear plastic wrap. These samples were grown at 27° C. under fluorescent light illumination (14 hours of a light period and 10 hours of a dark period) for 4 to 5 days, and the plant heights were then measured. Inhibition of shoot growth was determined by comparison to control plants grown in the absence of pyroxasulfone and the concentration for required 50% inhibition (IC50) was determined by the Probit method.
Resistance of rice plants comprising the TaQ8GTC0 gene introduced therein to VLCFAE-inhibiting herbicides was tested in the same manner as with the pyroxasulfone resistance test described above.
FIGS. 7-1 to 7-6 show the results. In FIGS. 7-1 to 7-6, the concentration of 0 μM, the minimal concentration shown in Table 4 (×1), the concentration 4 times higher than the minimal concentration shown in Table 4 (×4), and the concentration 16 times higher than the minimal concentration shown in Table 4 (×16) are shown successively from left to right.

[2] = system: wild-type rice plant (Nipponbare); assay: Sensitivity of wild-type rice (Nipponbare) to VLCFAE-inhibiting herbicides, gellan gum medium; format: in vivo; conditions: Oryza sativa, 168 h
Procedure: Whether or not a rice plant comprising the TaQ8GTC0 gene introduced therein has VLCFAE-inhibiting herbicide resistance was determined on the basis of a difference in sensitivity of rice between transformant and wild-type. Accordingly, the sensitivity of the wild-type rice plant (Nipponbare) to VLCFAE-inhibiting herbicides used in the glutathione conjugation activity test was examined as described below.
The growth inhibition test was carried out using a gellan gum medium. Hoagland's mix and 3 g of gellan gum were suspended in 1 liter of distilled water and thoroughly dissolved therein by heating in a microwave. A fraction of the resultant (15 ml) was poured in a tubular bottle before it was cooled. When the herbicide (an acetone solution) was to be incorporated thereinto, the herbicide was simultaneously added at the time of filling of the gellan gum medium into the tubular bottle, followed by thorough mixing (final acetone concentration: 0.1%). Rice hulls were soaked in a 50-fold diluted sodium hypochlorite solution (antiformin) (Wako) for approximately 20 minutes and then thoroughly rinsed with water. Sterilized seeds were soaked in distilled water and allowed to stand at 27° C. for germination (for approximately 2 days). Germinating seeds were transferred with the sprout side up to a gellan gum medium containing herbicide (the tubular bottle). Subsequently, these samples, together with a beaker filled with distilled water, were placed in a transparent case, which was then covered with a clear plastic wrap. These samples were grown at 27° C. under fluorescent light illumination (14 hours of a light period and 10 hours of a dark period) for 1 week, the plants were sampled, and the plant heights were then measured. Inhibition of shoot growth was determined by comparison to control plant grown in the absence of herbicide and the concentration required for 50% inhibition (IC50) was determined by the Probit method.

**Q.** Which “pyroxasulfone resistance relative to wild-type plants” value ([1]; 16 lines among 18 lines used in the test) does the source give for Cn1nc(C(F)(F)F)c(CS(=O)(=O)C2=NOC(C)(C)C2)c1OC(F)F [Pyroxasulfone, 3-[5-(difluoromethoxy)-1-methyl-3-(trifluoromethyl)pyrazol-4-ylmethylsulfonyl]-4,5-dihydro-5,5-dimethyl-1,2-oxazole] here?
**A.** The value was ≥ 10 times.

**Q.** What about the IC50 ([1]; lineage #1-3) of the same compound?
**A.** The IC50 was 1140 nM.

**Q.** And the IC50 ([1]; lineage #1-4)?
**A.** Its IC50 is 1310 nM.

**Q.** What about the IC50 ([1]; lineage #1-7) of the same compound?
**A.** The IC50 was 969 nM.

**Q.** And the IC50 ([1]; lineage #1-10)?
**A.** Its IC50 is 510 nM.

**Q.** And the IC50 ([1]; lineage #2-6)?
**A.** Its IC50 is 968 nM.

**Q.** What about the IC50 ([1]; lineage #2-9) of the same compound?
**A.** Its IC50 is 1090 nM.

**Q.** What about the IC50 ([1]; lineage #3-4) of the same compound?
**A.** The IC50 was 1720 nM.

**Q.** What about the IC50 ([1]; lineage #3-9) of the same compound?
**A.** The IC50 was 1010 nM.

**Q.** What about the IC50 ([1]; lineage #3-12) of the same compound?
**A.** Its IC50 is 67 nM.

**Q.** And the IC50 ([1]; lineage #3-13)?
**A.** The IC50 was 13800 nM.

**Q.** And the IC50 ([1]; lineage #4-1)?
**A.** The IC50 was 496 nM.

**Q.** What about the IC50 ([1]; lineage #4-3) of the same compound?
**A.** Its IC50 is 4320 nM.

**Q.** What about the IC50 ([1]; lineage #4-7) of the same compound?
**A.** The IC50 was 7150 nM.

**Q.** What about the IC50 ([1]; lineage #4-10) of the same compound?
**A.** The IC50 was 2120 nM.

**Q.** What about the IC50 ([1]; lineage #4-13) of the same compound?
**A.** Its IC50 is 3850 nM.

**Q.** And the IC50 ([1]; lineage #4-14)?
**A.** The IC50 was 45 nM.

**Q.** And the IC50 ([1]; lineage #5-1)?
**A.** Its IC50 is 968 nM.

**Q.** What about the IC50 ([1]; lineage #5-11) of the same compound?
**A.** The IC50 was 983 nM.

**Q.** And the “Pyroxasulfone resistance (ratio of IC50 of transformed rice to IC50 of wild-type rice)” value ([1]; lineage #1-3)?
**A.** The value was 29.

**Q.** And the “Pyroxasulfone resistance (ratio of IC50 of transformed rice to IC50 of wild-type rice)” value ([1]; lineage #1-4)?
**A.** Its value is 33.

**Q.** What about the “Pyroxasulfone resistance (ratio of IC50 of transformed rice to IC50 of wild-type rice)” value ([1]; lineage #1-7) of the same compound?
**A.** Its value is 25.

**Q.** What about the “Pyroxasulfone resistance (ratio of IC50 of transformed rice to IC50 of wild-type rice)” value ([1]; lineage #1-10) of the same compound?
**A.** The value was 13.

**Q.** What about the “Pyroxasulfone resistance (ratio of IC50 of transformed rice to IC50 of wild-type rice)” value ([1]; lineage #2-6) of the same compound?
**A.** Its value is 25.

**Q.** And the “Pyroxasulfone resistance (ratio of IC50 of transformed rice to IC50 of wild-type rice)” value ([1]; lineage #2-9)?
**A.** The value was 28.

**Q.** What about the “Pyroxasulfone resistance (ratio of IC50 of transformed rice to IC50 of wild-type rice)” value ([1]; lineage #3-4) of the same compound?
**A.** Its value is 44.

**Q.** And the “Pyroxasulfone resistance (ratio of IC50 of transformed rice to IC50 of wild-type rice)” value ([1]; lineage #3-9)?
**A.** The value was 26.

**Q.** What about the “Pyroxasulfone resistance (ratio of IC50 of transformed rice to IC50 of wild-type rice)” value ([1]; lineage #3-12) of the same compound?
**A.** Its value is 2.

**Q.** And the “Pyroxasulfone resistance (ratio of IC50 of transformed rice to IC50 of wild-type rice)” value ([1]; lineage #3-13)?
**A.** Its value is 353.

**Q.** And the “Pyroxasulfone resistance (ratio of IC50 of transformed rice to IC50 of wild-type rice)” value ([1]; lineage #3-13, listed as pyroxasulfone)?
**A.** Its value is “approximately 350”.

**Q.** What about the “growth of rice plants comprising the TaQ8GTC0 gene on herbicide medium” value ([1]; lineage #3-13, minimal concentration (×1), ×4 and ×16 of Table 4) of the same compound?
**A.** Its value is “the growth thereof was not affected at the maximal test concentration”.

**Q.** What about the “Pyroxasulfone resistance (ratio of IC50 of transformed rice to IC50 of wild-type rice)” value ([1]; lineage #4-1) of the same compound?
**A.** Its value is 13.

**Q.** And the “Pyroxasulfone resistance (ratio of IC50 of transformed rice to IC50 of wild-type rice)” value ([1]; lineage #4-3)?
**A.** Its value is 111.

**Q.** What about the “Pyroxasulfone resistance (ratio of IC50 of transformed rice to IC50 of wild-type rice)” value ([1]; lineage #4-7) of the same compound?
**A.** The value was 183.

**Q.** And the resistance to pyroxasulfone ([1]; lineage #4-7, no data disclosed)?
**A.** Its resistance to pyroxasulfone is “high level of resistance”.

**Q.** And the “Pyroxasulfone resistance (ratio of IC50 of transformed rice to IC50 of wild-type rice)” value ([1]; lineage #4-10)?
**A.** The value was 54.

**Q.** What about the “Pyroxasulfone resistance (ratio of IC50 of transformed rice to IC50 of wild-type rice)” value ([1]; lineage #4-13) of the same compound?
**A.** Its value is 99.

**Q.** And the “Pyroxasulfone resistance (ratio of IC50 of transformed rice to IC50 of wild-type rice)” value ([1]; lineage #4-14)?
**A.** The value was 1.

**Q.** What about the “Pyroxasulfone resistance (ratio of IC50 of transformed rice to IC50 of wild-type rice)” value ([1]; lineage #5-1) of the same compound?
**A.** Its value is 25.

**Q.** What about the “Pyroxasulfone resistance (ratio of IC50 of transformed rice to IC50 of wild-type rice)” value ([1]; lineage #5-11) of the same compound?
**A.** The value was 25.

**Q.** And the minimal effective concentration ([2]; minimal concentration at which growth of wild-type rice is inhibited, read-out: Minimal inhibitory concentration)?
**A.** Its minimal effective concentration is 0.075 µM.

**Q.** And the IC50 ([2]; shoot growth, 1 week, Probit method, read-out: I50)?
**A.** The IC50 was 48 nM.

Reference: US11198710B2, “Transgenic plant having herbicide resistance” (priority 2016, dated 2021)
